In patent publication US20260327242A1, “Platform and Scaffold for FAP Targeting Agents” (Erasmus University Medical Center Rotterdam, priority 2022, published 2026):

target: T1, mouse FAP (mFAP) (Mus musculus, UniProt P97321); assay: In vitro inhibition assay on mouse FAP (Z-GP-AMC substrate); type: biochemical; details: 20 μM Z-GP-AMC, 20 nM FAP, pH 7.4, room temperature
T1 sequence (P97321 26-761 limits assumed): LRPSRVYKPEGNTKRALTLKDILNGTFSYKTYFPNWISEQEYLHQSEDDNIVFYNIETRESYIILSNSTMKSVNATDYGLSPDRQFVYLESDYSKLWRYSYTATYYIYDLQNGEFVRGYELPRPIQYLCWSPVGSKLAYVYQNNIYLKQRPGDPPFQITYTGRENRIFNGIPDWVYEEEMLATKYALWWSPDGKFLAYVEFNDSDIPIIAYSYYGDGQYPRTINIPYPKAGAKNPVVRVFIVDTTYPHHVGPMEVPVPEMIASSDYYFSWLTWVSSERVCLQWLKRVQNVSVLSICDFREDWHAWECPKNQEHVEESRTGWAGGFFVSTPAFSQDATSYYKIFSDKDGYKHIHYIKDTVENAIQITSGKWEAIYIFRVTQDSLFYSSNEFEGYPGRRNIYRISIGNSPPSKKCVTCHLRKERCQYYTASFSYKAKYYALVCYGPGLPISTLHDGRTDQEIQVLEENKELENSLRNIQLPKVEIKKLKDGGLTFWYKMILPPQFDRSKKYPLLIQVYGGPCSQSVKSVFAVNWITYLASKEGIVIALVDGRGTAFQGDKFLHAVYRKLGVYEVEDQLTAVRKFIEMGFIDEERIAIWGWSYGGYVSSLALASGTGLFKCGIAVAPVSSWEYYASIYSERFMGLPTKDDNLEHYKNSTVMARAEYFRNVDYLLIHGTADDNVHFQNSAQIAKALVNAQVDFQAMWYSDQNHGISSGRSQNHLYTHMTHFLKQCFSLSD
Method: Enzymatic activity of human FAP (hFAP) and mouse FAP (mFAP) on the Z-GP-AMC substrate was measured at room temperature on a Hidex microplate reader by monitoring the fluorescence at an excitation wavelength of 360 nm and an emission wavelength of 465 nm. The reaction mixture contained 20 μM substrate, 20 nM FAP, assay buffer (50 mM Tris, 100 mM NaCl, 1 mM EDTA, pH 7.4) and tested compound (serial dilution from 10-6 to 10^−12) in a total volume of 50 μL.
Results with FAPI-46 obtained in the same assay is included for comparison.

SMILES	IC50
CN1/C(=C/C=C/C=C/C2=[N+](CCCCCC(=O)NCCCOc3cccc4c(C(=O)NCC(=O)N5CC(F)(F)C[C@H]5C#N)ccnc34)c3ccc(S(=O)(=O)[O-])cc3C2(C)C)C(C)(C)c2cc(S(=O)(=O)O)ccc21 [eFAP-7, 1-(6-((3-((4-((2-((S)-2-Cyano-4,4-difluoropyrrolidin-1-yl)-2-oxoethyl)carbamoyl)quinolin-8-yl)oxy)propyl)amino)-6-oxohexyl)-3,3-dimethyl-5-sulfo-2-((1E,3E)-5-((E)-1,3,3-trimethyl-5-sulfoindolin-2-ylidene)penta-1,3-dien-1-yl)-3H-indol-1-ium]	2.5 ± 0.8 nM
N#C[C@@H]1CC(F)(F)CN1C(=O)CNC(=O)c1ccnc2c(OCCCNC(=O)CC(O)CNC(=O)CC(O)CNC(=S)Nc3ccc4c(c3)C(=O)OC43c4ccc(O)cc4Oc4cc(O)ccc43)cccc12 (stereo partly drawn) [eFAP-23, N-(2-((S)-2-cyano-4,4-difluoropyrrolidin-1-yl)-2-oxoethyl)-8-(3-(4-(4-(3-(3′,6′-dihydroxy-3-oxo-3H-spiro[isobenzofuran-1,9′-xanthen]-5-yl)thioureido)-3-hydroxybutanamido)-3-hydroxybutanamido)propoxy)quinoline-4-carboxamide]	2 ± 0.4 nM
N#C[C@@H]1CC(F)(F)CN1C(=O)CNC(=O)c1ccnc2c(OCCCNC(=O)CCOCCOCCNc3nc(NCCCn4nnc5c4CC[C@H]4[C@@H](CC5)[C@H]4COC(=O)NCCNC(=O)CCC(C(=O)O)N4CCN(CC(=O)O)CCN(CC(=O)O)CCN(CC(=O)O)CC4)nc(NCCOCCOCCC(=O)NCCCOc4cccc5c(C(=O)NCC(=O)N6CC(F)(F)C[C@H]6C#N)ccnc45)n3)cccc12 (stereo partly drawn) [eFAP-37]	0.8 ± 0.1 nM

Now from value to compound:

IC50	SMILES
1.5 ± 0.2 nM	N#C[C@@H]1CC(F)(F)CN1C(=O)CNC(=O)c1ccnc2c(OCCCNC(=O)COCC(=O)Nc3ccc(CNC(=O)CN4CCN(CC(=O)O)CCN(CC(=O)O)CCN(CC(=O)O)CC4)cc3)cccc12 [eFAP-11, (S)-2,2′,2″-(10-(2-((4-(2-(2-((3-((4-((2-(2-Cyano-4,4-difluoropyrrolidin-1-yl)-2-oxoethyl)carbamoyl)quinolin-8-yl)oxy)propyl)amino)-2-oxoethoxy)acetamido)benzyl)amino)-2-oxoethyl)-1,4,7,10-tetraazacyclododecane-1,4,7-triyl)triacetic acid]
1.8 ± 0.2 nM	N#C[C@@H]1CC(F)(F)CN1C(=O)CNC(=O)c1ccnc2c(OCCCNC(=O)CN3CCN(C(=O)CN4CCN(CC(=O)O)CCN(CC(=O)O)CCN(CC(=O)O)CC4)CC3)cccc12 [eFAP-12, (S)-2,2′,2″-(10-(2-(4-(2-((3-((4-((2-(2-Cyano-4,4-difluoropyrrolidin-1-yl)-2-oxoethyl)carbamoyl)quinolin-8-yl)oxy)propyl)amino)-2-oxoethyl)piperazin-1-yl)-2-oxoethyl)-1,4,7,10-tetraazacyclododecane-1,4,7-triyl)triacetic acid]
1.3 ± 0.6 nM	N#C[C@@H]1CC(F)(F)CN1C(=O)CNC(=O)c1ccnc2c(OCCCNC(=O)CN3CCN(CCNC(=O)CN4CCN(CC(=O)O)CCN(CC(=O)O)CCN(CC(=O)O)CC4)CC3)cccc12 [eFAP-13, (S)-2,2′,2″-(10-(2-((2-(4-(2-((3-((4-((2-(2-Cyano-4,4-difluoropyrrolidin-1-yl)-2-oxoethyl)carbamoyl)quinolin-8-yl)oxy)propyl)amino)-2-oxoethyl)piperazin-1-yl)ethyl)amino)-2-oxoethyl)-1,4,7,10-tetraazacyclododecane-1,4,7-triyl)triacetic acid]
